Experimental data published in patent US20050058636A1, “Medicament against thrombotic diseases” (priority 2002, published 2005).

Columns and labels:
[1] = molecular target: T1, binding of PAI-1 to vitronectin in PAI-1-depleted extracellular matrix of endothelial cells (Homo sapiens, UniProt P04004); test: Binding of PAI-1 to endothelial cell matrix; conditions: 2 μg/ml PAI-1; competitors each 500 nM; 10 μM ZnCl2 (FIG. 1)
T1 construct: The extracellular matrix of human umbilical vein endothelial cells was prepared according to standard procedures; endogenous in cells; host or cells: extracellular matrix of human umbilical vein endothelial cells, glycine-treated
T1 sequence (P04004 20-478): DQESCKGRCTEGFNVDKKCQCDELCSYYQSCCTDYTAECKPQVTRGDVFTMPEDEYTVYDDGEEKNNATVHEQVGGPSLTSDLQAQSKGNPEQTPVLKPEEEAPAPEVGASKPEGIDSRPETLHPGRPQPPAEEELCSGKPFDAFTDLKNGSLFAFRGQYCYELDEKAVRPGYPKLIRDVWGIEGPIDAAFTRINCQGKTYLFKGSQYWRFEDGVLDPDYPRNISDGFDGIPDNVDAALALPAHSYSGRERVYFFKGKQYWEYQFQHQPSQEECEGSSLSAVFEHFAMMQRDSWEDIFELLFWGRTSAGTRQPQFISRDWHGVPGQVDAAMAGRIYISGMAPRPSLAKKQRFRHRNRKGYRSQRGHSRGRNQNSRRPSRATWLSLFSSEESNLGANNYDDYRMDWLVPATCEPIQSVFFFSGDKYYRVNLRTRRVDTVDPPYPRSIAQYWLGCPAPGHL
Experimental: The extracellular matrix of human umbilical vein endothelial cells was prepared according to standard procedures. PAI-1-depleted extracellular matrix was obtained by subsequent incubation with glycine (0.1 M, pH 2.3) for 2 h at 25° C. Wells were washed and blocked with phosphate buffered saline containing 3% (wt/vol) bovine serum albumin before proceeding with binding assays. Binding of PAI-1 (2 μg/ml) to the extracellular matrix was performed in a final volume of 50 μl Tris-buffered saline containing 0.1% Tween-20, 0.3% (wt/vol) bovine serum albumin for 2 h at 22° C. in the absence or presence of […] and different kininogen forms. Following the incubation period and a washing step, bound PAI-1 was quantitated by anti-human PAI-1 monoclonal antibody 12A4, followed by addition of 1:1000 diluted peroxidase-conjugated goat anti-mouse immunoglobulins. The conversion of the substrate 2,2,-azino-di(3-ethyl) benz-thiazoline sulphate was monitored at 405 nm in a Thermomax microtiter plate reader. […]
FIG. 1 The binding of 2 μg/ml PAI-1 to PAI-1-depleted (2 h glycine preincubation) extracellular matrix of cultured endothelial cells was tested in the absence (−)or presence of HK, HKa, GST-domain 5 (D5), the peptides HK483 and HK486 (each 500 nM) in a buffer containing 10 μM ZnCl2. Specific binding of PAI-1 is presented as absorbance at 405 nm.

platelets = test: Platelet adhesion onto vitronectin-coated plates; format: cell-based; conditions: competitors each 250 nM (FIG. 4)
Experimental: Multiwell plates were coated with 5 μg/ml multimeric vitronectin (dissolved in bicarbonate buffer, pH 9.6) and blocked with 3% (wt/vol) bovine serum albumin for 16 h at 4° C. Platelets stained with calcein acetoxymethyl ester (calcein-AM, 2.5 μM) (15 min at 37° C. in the dark) at a density of 5×10^6 cells suspended in 50 μl HEPES-Tyrode buffer containing 4 mM MgCl2 were added together with the respective competitors and incubated for 30 min at 37° C. After three washes with phosphate buffered saline, bound platelets were lysed with 100 μl of lysis buffer (150 mM NaCl, 10 mM Tris-CH1, pH 7.5, 5 mM EDTA, 1% (wt/vol) NP-40, 1 mM phenyl-methylsulfonyl fluoride, 20 μg/ml soybean trypsin inhibitor) and quantified in a fluorescent plate reader (excitation filter 492 nm, emission filter 535 nm).
FIG. 4. The adhesion of platelets to vitronectin in the absence (−) or presence of HK, HKa, GST-domain 5(D5), or the peptides HK483 and HK486 (each 250 nM) was carried out. Cell adhesion is presented as % of control.

PAI-1 = test: Urokinase-mediated clot lysis in the presence of PAI-1; format: biochemical; conditions: not shown
platelet-rich plasma = test: Aggregation of platelet-rich plasma; format: cell-based; conditions: Adenosin-diphosphate (5 μM)-induced; competitors each 1000 nM (FIG. 5)
Experimental: Platelet-rich plasma from fresh whole blood in sodium citrate was prepared by centrifugation of anticoagulated whole blood at 150 g for 20 min. After incubation of 0.45 ml of platelet rich plasma with different kininogen forms as indicated in the figure legends, and addition of 5 μl of […] at a final concentration of 5 μM, platelet aggregation was induced. Aggregation was quantitated by following the change in light transmission in a standardized aggregometer.
FIG. 5 Adenosin-diphosphate (5 μM)-induced aggregation of platelet-rich plasma was performed in the absence (−) or presence of GST-domain 5 (D5), or the peptides HK483 and HK486 (each 1000 nM). Platelet aggregation is presented as % of control.

[2] = molecular target: T2, platelet αIIbβ3-integrin with vitronectin (Homo sapiens, UniProt P04004); test: Binding of vitronectin to αIIbβ3-integrin; conditions: vitronectin 2 μg/ml, immobilized αIIbβ3-integrin 5 μg/ml, 10 μM ZnCl2 (FIG. 3)
T2 sequence (P04004 20-478): T1 sequence (P04004 20-478)
Experimental: Microtiter plates were coated with 5 μg/ml αIIbβ3-integrin in Tris-buffered saline, pH 7.4, containing 1 mM CaCl2, 1 mM MgCl2 overnight at 4° C. and then blocked with 3% (w/v) bovine serum albumin. Binding of multimeric vitronectin (2 μg/ml) was performed in a final volume of 50 μl Tris-buffered saline containing 0.1% Tween-20, 0.3% (w/v) bovine serum albumin, 1 mM CaCl2 and 1 mM MgCl2 for 2 h at 22° C. in the absence or presence of 10 μM ZnCl2 and different kininogen forms. After the incubation period, monoclonal anti-vitronectin antibody VN7 at a concentration of 125 ng/ml was added, followed by addition of 1:1000 diluted peroxidase-conjugated goat anti-mouse immunoglobulins, respectively. Binding was quantitated as described above.
FIG. 3 The binding of vitronectin (2 μg/ml) to immobilized αIIbβ3-integrin (5 μg/ml) in the absence or presence of increasing concentrations of PAI-1 (filled squares), HKa (filled circles) or GST-domain 5 (open circles) in a buffer containing 10 μM ZnCl2 was carried out. Specific binding is presented as absorbance at 405 nm.

For “His-483-Gly-497 (HGHGKHKNKGKKNGK; UniProt P01042 501-515, looked up, fragment) [HK483, peptide derived from the carboxy-terminus of the domain 5 of HK]”, the “binding of PAI-1 to vitronectin in PAI-1-depleted (glycine-treated) extracellular matrix of endothelial cells” value [1] was “inhibited”, the “αIIbβ3-integrin-mediated platelet adhesion to vitronectin” value (platelets) was “block” and the “urokinase-mediated clot lysis, which is inhibited in the presence of PAI-1” value (PAI-1) was “enhance”. For the same substance, the “aggregation of platelet-rich plasma” value (platelet-rich plasma) was “inhibit” and the “interaction of platelet αIIbβ3-integrin with vitronectin” value [2] was “block”.
